Test results reported in patent US10150737B2, “Compounds for controlling arthropods” (priority 2013, dated 2018).

Columns and labels:
[1] = system: Boophilus microplus; assay: Boophilus microplus - injection test; format: in vivo; settings: application rate 20 μg/animal, injection into engorged adult female ticks, after 7 days
In short: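 Five engorged adult female cattle ticks each received a 1 μl abdominal injection of compound solution in dimethyl sulphoxide. Fertile egg laying was assessed at 7 days, with doubtful eggs incubated about 42 days until hatch. 0% efficacy means all eggs fertile.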

[2] = system: Tetranychus urticae; assay: Tetranychus urticae - spray test, OP-resistant; format: in vivo; settings: bean leaf discs, after 6 days
In short: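 Mortality (%) read on day 6 after spraying Phaseolus vulgaris leaf discs carrying all mite stages with formulations at the desired concentration. Formulation: active ingredient in acetone plus dimethylformamide, made up with emulsifier-containing water (1000 ppm alkylaryl polyglycol ether).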

[3] = system: Lucilia cuprina; assay: Lucilia cuprina test; format: in vivo; settings: application rate 100 ppm; L1 larvae; after 2 days
In short: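 Mortality (%) of first-instar blowfly larvae, about 20 per vessel, recorded 2 days after exposure to compound-treated minced horsemeat. Compound dissolved in dimethyl sulphoxide, then water-diluted to the desired concentration.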

[4] = system: Myzus persicae; assay: Myzus persicae - spray test; format: in vivo; settings: Chinese cabbage leaf discs, after 6 days
Experimental: Solvent: 78 parts by weight of acetone and 1.5 parts by weight of dimethylformamide
Emulsifier: alkylaryl polyglycol ether
To produce an appropriate active ingredient formulation, 1 part by weight of active ingredient is dissolved using the specified parts by weight of solvent and made up with water containing an emulsifier concentration of 1000 ppm until the desired concentration is attained. To produce further test concentrations, the preparation is diluted with emulsifier-containing water.
Discs of Chinese cabbage leaves (Brassica pekinensis) infested by all stages of the green peach aphid (Myzus persicae) are sprayed with an active ingredient formulation of the desired concentration.
After 6 days, efficacy in % is determined. 100% means that all the aphids have been killed; 0% means that none of the aphids have been killed.

[5] = system: Ctenocephalides felis; assay: Ctenocephalides felis - oral test; format: in vivo; settings: application rate 100 ppm in citrated cattle blood; after 2 days
In short: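 Roughly 20 unfed adult C. felis imbibe compound-dosed citrated cattle blood (DMSO formulation) across parafilm from a cylinder above their gauze chamber; percentage mortality recorded at day 2.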

[6] = system: Ctenocephalides felis; assay: Ctenocephalides felis - in vitro contact tests with adult cat fleas; format: in vivo; settings: application rate 5 μg/cm2 (=500 g/ha); after 48 h; fleas dead or moribund
Experimental: For the coating of the test tubes, 9 mg of active ingredient are first dissolved in 1 ml of acetone p.a. and then diluted to the desired concentration with acetone p.a. 250 μl of the solution are distributed homogeneously on the inner walls and base of a 25 ml test tube by turning and rocking on an orbital shaker (rocking rotation at 30 rpm for 2 h). With 900 ppm active ingredient solution and internal surface area 44.7 cm^2, given homogeneous distribution, an area-based dose of 5 μg/cm^2 is achieved.
After the solvent has evaporated off, the tubes are populated with 5-10 adult cat fleas (Ctenocephalides felis), sealed with a perforated plastic lid and incubated in a horizontal position at room temperature and ambient humidity. After 48 h, efficacy is determined. To this end, the test tubes are stood upright and the fleas are knocked to the base of the tube. Fleas which remain motionless at the base or move in an uncoordinated manner are considered to be dead or moribund.
100% efficacy means that all the fleas were dead or moribund. 0% efficacy means that no fleas were harmed.

[7] = logP determination by HPLC on a reversed-phase column (C18); format: physicochemical; settings: for logP^a): HPLC-MS method a); for log P: HPLC-MS
[8] = system: Phaedon cochleariae; assay: Phaedon cochleariae - spray test; format: in vivo; settings: larvae on Chinese cabbage leaf discs, after 7 days
In short: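 Mortality of mustard beetle larvae was scored as % at day 7 on Brassica pekinensis leaf discs. Discs had been treated by spraying at the desired concentration, using an acetone/dimethylformamide solution diluted in water with 1000 ppm alkylaryl polyglycol ether, and dried before larvae were added.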

[9] = system: Spodoptera frugiperda; assay: Spodoptera frugiperda - spray test; format: in vivo; settings: caterpillars on maize leaf discs, after 7 days
In short: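 Percent mortality of Spodoptera frugiperda caterpillars scored 7 days after placing them on dried maize leaf discs sprayed at the desired concentration. Spray formulation: compound dissolved in acetone/dimethylformamide, made up with water containing 1000 ppm emulsifier.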

[10] = system: Musca domestica; assay: Musca domestica test; format: in vivo; settings: application rate 100 ppm; adult houseflies; after 2 days
In short: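 10 adult flies per vessel; sugar-solution sponge dosed with active ingredient formulation (DMSO concentrate diluted in water to desired concentration). Read-out: % kill at 2 days.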

[11] = system: Boophilus microplus Parkhurst strain, SP-resistant; assay: Boophilus microplus - dip test; format: in vivo; settings: application rate 100 ppm; dip of engorged adult female ticks; after 7 days
Experimental: Test animals: cattle ticks (Boophilus microplus) Parkhurst strain, SP-resistant
Solvent: dimethyl sulphoxide
10 mg of active ingredient are dissolved in 0.5 ml of dimethyl sulphoxide. For the purpose of producing a suitable formulation, the active ingredient solution is diluted with water to the concentration desired in each case.
This active ingredient formulation is pipetted into tubes. 8-10 adult engorged female cattle ticks (Boophilus microplus) are transferred into a further tube with holes. The tube is immersed into the active ingredient formulation, and all the ticks are completely wetted. After the liquid has run out, the ticks are transferred on filter discs into plastic dishes and stored in a climate-controlled room.
Efficacy is assessed after 7 days by laying of fertile eggs. Eggs which are not visibly fertile are stored in a climate-controlled cabinet until the larvae hatch after about 42 days. An efficacy of 100% means that none of the ticks has laid any fertile eggs; 0% means that all the eggs are fertile.

[12] = reversed-phase column (C18), Table I-T3

SMILES	efficacy (laying of fertile eggs) [1]	efficacy ([2]; application rate 100 g/ha)	efficacy (kill) [3]	efficacy ([4]; application rate 100 g/ha)	efficacy (kill) [5]	efficacy [6]	logP^a) ([7]; reversed-phase column (C18))	log P [7, 12]	efficacy ([8]; application rate 100 g/ha)	efficacy ([9]; application rate 100 g/ha)	efficacy (kill) [10]	pest or weed control at 0.02 mg ([1]; Rhipicephalus microplus, 168 h, read-out: efficacy (laying of fertile eggs))	efficacy (laying of fertile eggs) [11]	logP^a) [7]	logP^a) [7, 12]	efficacy ([2]; application rate 500 g/ha)	efficacy ([4]; application rate 500 g/ha)	efficacy ([9]; application rate 500 g/ha)	efficacy ([8]; application rate 500 g/ha)
Cc1ncc(-c2cnn(-c3c(Cl)cc(C(F)(F)F)cc3Cl)c2)cc1C(=O)NC1CC1 [I-T3-127]	100%	100%	90%	100%	100%	100%	2.5	2.5	100%										
CCN(C(=O)c1cc(-c2cnn(-c3c(Cl)cc(C(F)(F)F)cc3Cl)c2)cnc1Cl)C1CC1 [I-T3-145]	100%	100%	100%	90%	100%	100%	3.8	3.8	100%	100%	90%								
O=C(NC1CC1)c1cc(-c2cnn(-c3c(F)cc(C(F)(F)F)cc3F)c2)ccc1Cl [I-T3-48, 2-chloro-N-cyclopropyl-5-[1-[2,6-difluoro-4-(trifluoromethyl)phenyl]pyrazol-4-yl]benzamide]											100%	100%	100%						
CCc1cc(C(F)(C(F)(F)F)C(F)(F)F)ccc1-n1cc(-c2ccc(Cl)c(C(=O)NC3CC3)c2)cn1 [I-T3-39]	100%	100%	100%	90%	100%				100%	100%			100%	4.6	4.6				
N#CC1(NC(=O)c2cc(-c3cnn(-c4c(Cl)cc(OC(F)(F)F)cc4Cl)c3)ccc2Cl)CC1 [I-T3-87]	100%	100%	100%	90%	100%	100%			100%	100%	100%			3.6	3.6				
Cc1ncc(-c2cnn(-c3c(Cl)cc(C(F)(F)F)cc3Cl)c2)cc1C(=O)NC1(C#N)CC1 [I-T3-129]	100%	100%		100%	100%	100%	2.6	2.6	100%		80%								
Cc1cc(C(F)(C(F)(F)F)C(F)(F)F)cc(C(F)(F)F)c1-n1cc(-c2ccc(Cl)c(C(=O)NC3CSC3)c2)cn1 [I-T3-85]	100%	100%	100%	90%	100%	100%			100%	100%	100%			4.7	4.7				
Cc1ncc(-c2cnn(-c3c(Cl)cc(C(F)(C(F)(F)F)C(F)(F)F)cc3Cl)c2)cc1C(=O)N(C)C1CC1 [I-T3-133]	100%	100%	100%		100%	100%	3.7	3.7	100%	100%	100%		100%						
Cc1cc(C(F)(C(F)(F)F)C(F)(F)F)cc(C)c1-n1cc(-c2cncc(C(=O)NC3CC3)c2)cn1 [I-T3-7]	100%		100%		100%	100%					80%			3.4	3.4	100%	100%	100%	100%
Cc1ncc(-c2cnn(-c3c(Cl)cc(C(F)(F)F)cc3Cl)c2)cc1C(=O)N(C)C1CC1 [I-T3-128]	100%			100%	100%	100%	2.8	2.8	100%										
Cc1ncc(-c2cnn(-c3c(Cl)cc(C(F)(F)F)cc3Cl)c2)cc1C(=O)N(C)C1(C#N)CC1 [I-T3-132]	100%	100%		90%	100%	100%	2.9	2.9	100%										
Cc1cc(C(F)(C(F)(F)F)C(F)(F)F)cc(C)c1-n1cc(-c2cccc(C(=O)NC3CC3)c2)cn1 [I-T3-29]	100%		100%		100%	100%					100%			3.3	3.3	100%	90%	100%	100%
CCc1cc(C(F)(C(F)(F)F)C(F)(F)F)cc(C)c1-n1cc(-c2cncc(C(=O)NC3(C#N)CC3)c2)cn1 [I-T3-76]	100%		90%	90%	100%						90%			3.4	3.4	100%		100%	100%
Cc1cc(C(F)(C(F)(F)F)C(F)(F)F)cc(C)c1-n1cc(-c2cncc(C(=O)NC3(C#N)CC3)c2)cn1 [I-T3-8]	100%		100%		100%						100%			3.4	3.4	100%	90%	100%	100%
